From patent US7786042B2, “Fluridone as an anti-inflammatory agent” (Universita' Degli Studi Di Genova, priority 2005, dated 2010)
“Also recorded” adds a separate entry of the source.

Columns and labels:
human granulocytes [1] = assay: Intracellular cADPR content in granulocytes (enzymatic cycling assay); format: cell-based; conditions: ABA 20 μM
Protocol: (§1) Panel A. GDP-ribosyl cyclase activity has been measured in granulocytes in the presence of increasing ABA concentrations, added together with the cyclase substrate NGD^+. The results are expressed as cyclase activity relative to control cells, incubated in the absence of ABA (mean ±SD from 5 determinations). Panel B. The intracellular concentration of cADPR was measured by enzymatic cycling assay (Materials and Methods) on granulcoytes incubated with 20 μM ABA for the periods of time indicated. The results are expressed as [cADPR]i relative to control cells, incubated without ABA (n=2).
The assays to determine the intracellular cADPR concentration ([cADPR]i) in granulocytes are known to the expert in the field. Granulocytes (40×10^6/ml in RPMI 1640) were incubated in the presence of 20 μM ABA and at various times 500 μl-aliquots were withdrawn and centrifuged (5,000×g for 15 s) to recover the cell pellets. Determination of the [cADPR]i was performed on perchloric acid cell extracts by an enzymatic cycling assay, as described in (Graeff, Biochem. J. 2002).

human granulocytes [2] = assay: ROS production by granulocytes (cytochrome c assay); format: cell-based; conditions: ABA 0.2-20 μM
Protocol: Granulocytes were resuspended at 5×10^6/ml in HBSS and 225 μl of the cell suspension were added to 50 μl of 0.2 mM cytochrome c and were incubated for 30 min at 37° C. in the absence (control) or in the presence of 250 nM or 20 μM ABA, the latter concentration without or with 1 mM EDTA, 20 mM nicotinamide or 0.1 mM 8-Br-cADPR. The amount of ROS (panel A) or of NO (panel B) in the cell supernatant was measured as described in Materials and Methods. The results are expressed as the production relative to control cells, not stimulated with ABA, and are the mean ±SD from 5 experiments.
Release of superoxide (O2^−) by human granulocytes was quantified by a spectrophotometric assay of cytochrome c reduction (Cohen, J Clin Invest 1978). Granulocytes were resuspended in HBSS (at 5×10^6 cells/ml) and 225 μl of the cell suspension was incubated for 30 min at 37° C. with 50 μl cytochrome c (0.2 mM) in the absence (control) or in the presence of ABA at different concentrations. Then, cells were centrifuged at 5,000×g for 15 s and the absorbance of the supernatants was recorded at 550 nm (λmax for reduced cytocrome c).

human granulocytes [3] = assay: Intracellular calcium [Ca2+]i in granulocytes; format: cell-based; conditions: 10 min after addition of 10 μM ABA; basal value 50±2 nM; n=4
Protocol: Granlocytes were isolated by density gradient centrifugation from the peripheral blood of healthy donors, after informed consent. Contaminating erythrocytes were removed by hypotonic lysis. […] The increase of [cADPR]i in turn induces a progressive rise of [Ca^2+]i, from a basal value of 50±2 nM to 170±25 nM after 10 min from the addition of 10 μM ABA (n=4). […] The increase of the [Ca^2+]i induced by ABA in granulocytes is in turn responsible for activation of several functional activities typical of these cells. The functional effects induced by ABA (at concentrations ranging between 0.2 and 20 μM) in granulocytes include stimulation of the production of reactive oxygen species (ROS), measured through the cytochrome c […] (FIG. 2A), and of nitric oxide (NO), measured as accumulation of nitrite, the end-product of NO […] (FIG. 2B).

human granulocytes [4] = assay: Chemotaxis and chemokinesis of granulocytes; format: cell-based; conditions: ABA 0.2-20 μM
[5] = test system: murine microglia cell line N9; assay: Chemokinesis of murine microglia N9; format: cell-based; conditions: ABA 0.2-20 μM
Protocol: Assays were performed using 96-well ChemoTx system microplates with a 3-μm pore size polycarbonate filter (NeuroProbe Inc., Gaithersburg, USA). Cells (granulocytes or murine microglia) were resuspended at 10^7/ml in HBSS, PBS and 5% albumin, 39:16:1 (chemotaxis buffer, CB). In order to evaluate the chemoattractant effect of ABA, hormone concentrations ranging from 50 nM to 20 μM were added in CB in the bottom wells and 25 μl cell suspensions were placed on top of the filter. To evaluate a possible stimulatory effect of ABA on spontaneous cell movements (chemokinesis), cells were pre-incubated with or without 20 μM ABA, then washed and placed on top of the filter, in contact with CB. Plates were incubated at 37° C. for 60 min and transmigrated cells were recovered and quantified by fluorimetric assay with Cytox Green. The number of transmigrated cells was calculated by comparison of the measured fluorescence with that of a standard curve, obtained by directly placing a serial dilution of cells in the bottom wells. The results of the chemotaxis experiments are expressed as “chemotaxis index” (CI): CI=number of cells migrated towards chemoattractant/number of cells migrated towards CB
The results of the chemokinesis experiments are expressed as number of ABA pre-treated cells migrated through the filter compared to control cells (not treated with ABA).

human granulocytes [6] = assay: GDP-ribosyl cyclase activity in granulocytes; format: cell-based; conditions: ABA 0.2 to 200 μM; detectable after 5 min
Protocol: as §1
Granulocytes were resuspended in HBSS (60×10^6/ml) and cyclase activity was measured by adding the substrate NGD^+ (a NAD^+ analogue, which product cGDPR is fluorescent) at the concentration of 0.2 mM together with increasing concentrations of ABA. At various times (0, 5, 15, 60 and 120 min) 100 μl-aliquots were withdrawn and centrifuged (5,000×g for 15 s) and supernatants were deproteinized with 2.5% (v/v) trichloroacetic acid. The cGDPR content was estimated by HPLC analysis, as described in (Guida, FEBS 1995).

[7] = test system: murine macrophages RAW 264.7; assay: Cell viability by Trypan blue exclusion, RAW 264.7; format: cell-based; conditions: RAW 264.7, fluridone 50 μM
Text: A similar effect (90% inhibition) is produced by fluridone also on the LPS-induced TNF-α production in both cell types (FIGS. 7 A and B). In all these cases, no toxicity of fluridone on the cells was observed, as evaluated by the ability of excluding the dye Trypan blue.

[8] = test system: murine microglial cell line N9; assay: ABA content in murine microglia N9 by HPLC-MS; format: cell-based; conditions: N9 cells; fluridone 50 μM together with LPS
Protocol: Cells from the murine microglial cell line N9 were pre-incubated with or without 50 μM fluridone for 2 hours and then stimulated with 100 ng/ml lipopolysaccharide (LPS) for 24 hours. The ABA content was measured by HPLC-MS (see Materials and Methods) and was compared with that of untreated cells (control). The results are the mean from 2 experiments.
N9 cells were seeded (25×10^6/flask) in IMDM medium containing fetal calf serum, incubated for 3 h at 37° C. with or without 50 μM fluridone and then incubated for 3 days in the absence or in the presence of 200 ng/ml lipopolysaccharide (LPS). Cells were then recovered, washed in phosphate-buffered saline isotonic solution at pH 7.4 (PBS), resuspended in 0.5 ml water and sonicated. […] A small aliquot of the extract was used to determine radioactivity (with a β-counter), allowing the calculation of the percentage of ABA recovery after-extraction. The rest of the extract was analyzed on an Agilent 1100 capillary chromatography system, with a diode array detector, equipped with a Waters Atlantis™ dC18 150×1 mm column, particle size 3 μm, coupled to an Agilent 1100 series LC/MSD Trap mass spectrometer, equipped with an orthogonal geometry electrospray source and ion trap analyser. […]

[9] = cited from earlier work

| SMILES | intracellular cADPR concentration ([cADPR]i) (human granulocytes [1]) | production of reactive oxygen species (ROS) (human granulocytes [2]) | [Ca2+]i (human granulocytes [3]) [nM] | chemokinesis (human granulocytes [4]) | chemotaxis (chemoattractant effect) (human granulocytes [4]) | chemokinesis [5] | GDP-ribosyl cyclase activity (human granulocytes [6]) | toxicity on the cells (Trypan blue exclusion) [7] | reduction of the LPS-induced increase of intracellular ABA content [8] [%] | maximum permissible intake allowed in humans ([9]; from chronic toxicity in rats fed with fluridone, dose reduction of two logarithms) [mg/kg/day] | ADI (acceptable daily intake) ([9]; humans) [mg/Kg/die] |
| --- | --- | --- | --- | --- | --- | --- | --- | --- | --- | --- | --- |
| CC1=CC(=O)CC(C)(C)[C@@]1(O)/C=C/C(C)=C\C(=O)O (racemic) [ABA, (±)-cis, trans ABA] | increase | stimulation; also recorded: ↑ROS release | 170 ± 25 | significant increase; also recorded: ↑chemokinesis | behaves as a chemoattractant; also recorded: ↑chemotaxis | increase; also recorded: ↑chemokinesis | dose-dependent stimulation | – | – | – | – |
| Cn1cc(-c2ccccc2)c(=O)c(-c2cccc(C(F)(F)F)c2)c1 [Fluridone, 1-methyl-3-phenyl-5-(α,α,α-trifluoro-m-tolyl)-4-pyridone] | – | – | – | – | – | – | – | no toxicity | 60 | 4.8 | 0.08 |
